This is an account of results in ChEMBL document CHEMBL5380877, “Azulene as a biphenyl mimetic in orexin/hypocretin receptor agonists” (Bioorg Med Chem, 2023).

A value given as a limit tells only on which side of the number the result lay.

The first test has as its target T1, Orexin/Hypocretin receptor type 1 (Homo sapiens, UniProt O43613).
T1 sequence (O43613 whole entry): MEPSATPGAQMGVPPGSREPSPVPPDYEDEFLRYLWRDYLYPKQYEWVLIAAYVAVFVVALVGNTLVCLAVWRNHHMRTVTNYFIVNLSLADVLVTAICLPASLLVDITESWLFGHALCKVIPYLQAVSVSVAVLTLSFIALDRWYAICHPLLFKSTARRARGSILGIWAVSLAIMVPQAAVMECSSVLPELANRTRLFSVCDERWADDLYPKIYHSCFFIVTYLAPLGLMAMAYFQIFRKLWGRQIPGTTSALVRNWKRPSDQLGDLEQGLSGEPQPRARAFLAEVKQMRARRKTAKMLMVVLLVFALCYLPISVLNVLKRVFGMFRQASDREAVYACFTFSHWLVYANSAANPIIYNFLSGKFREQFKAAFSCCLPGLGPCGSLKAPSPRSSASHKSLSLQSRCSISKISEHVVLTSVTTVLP
The experiment in a line: Agonist activity at human OX1 receptor expressed in CHO cells assessed as increase in Ca2+ accumulation level measured after 24 hrs by FLIPR calcium 4 assay. The test is classed as functional, cell-based.
As to `Cc1ccc2c(C(=O)N(C)C)cc(S(=O)(=O)Nc3cccc(NCCNC(=O)c4cccc(C)c4)c3)c-2cc1`, the EC50 was 1.62 µM.

For another test, the target named is T1, Orexin/Hypocretin receptor type 1. The experiment in a line: Antagonist activity at human OX1 receptor expressed in CHO cells assessed as reduction in orexin-A induced calcium level at 10 uM incubated for 24 hrs by FLIPR calcium 4 assay. The test is classed as functional, cell-based.
With `Cc1ccc2c(C(=O)N(C)C)cc(S(=O)(=O)Nc3cccc(NCCNC(=O)c4cccc(C)c4)c3)c-2cc1`, the Ki amounted to 4 µM.

The next test has as its target T2, Orexin receptor type 2 (Homo sapiens, UniProt O43614).
T2 sequence (O43614 whole entry): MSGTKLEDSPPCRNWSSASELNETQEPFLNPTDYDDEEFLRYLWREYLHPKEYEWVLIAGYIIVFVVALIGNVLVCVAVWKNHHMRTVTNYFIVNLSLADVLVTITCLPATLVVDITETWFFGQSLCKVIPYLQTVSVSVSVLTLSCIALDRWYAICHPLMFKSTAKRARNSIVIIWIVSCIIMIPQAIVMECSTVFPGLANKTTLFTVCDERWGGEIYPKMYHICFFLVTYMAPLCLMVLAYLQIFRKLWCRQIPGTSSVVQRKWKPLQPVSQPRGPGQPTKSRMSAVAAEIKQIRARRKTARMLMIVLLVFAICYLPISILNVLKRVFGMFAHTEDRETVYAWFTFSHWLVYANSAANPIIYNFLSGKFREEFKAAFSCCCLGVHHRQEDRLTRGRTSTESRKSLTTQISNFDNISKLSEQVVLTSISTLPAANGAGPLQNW
The test can be described thus: Antagonist activity at human OX2 receptor expressed in CHO cells assessed as reduction in orexin-A induced calcium level at 10 uM incubated for 24 hrs by FLIPR calcium 4 assay. The test is classed as functional, cell-based.
Turning to `CN(C)C(=O)c1ccc2ccc(C(=O)N(C)C)c-2cc1`, the Ki was over 10 µM.
On to `Cc1ccc2c(C(=O)N(C)C)cc(S(=O)(=O)Nc3cccc(N(CCNC(=O)c4cccc(C)c4)C(=O)C(F)(F)F)c3)c-2cc1`, for which the Ki was over 10 µM.
On the same count and under the same terms, as for `CN(C)C(=O)c1ccc2ccc(C(=O)C(F)(F)F)c-2cc1`, the figure is over 10 µM; as for `Cc1cccc(C(=O)NCCN(C(=O)C(F)(F)F)c2cccc(NS(=O)(=O)c3cc(C(=O)C(F)(F)F)c4ccc(C(=O)N(C)C)ccc3-4)c2)c1`, over 10 µM.
Same read-out and setting: as for `Cc1ccc2c(C(=O)N(C)C)cc(S(=O)(=O)O)c-2cc1`, the figure is over 10 µM; as for `Cc1ccc2c(C(=O)C(F)(F)F)cc(S(=O)(=O)O)c-2cc1`, over 10 µM.
Take `Cc1cccc(C(=O)NCCNc2cccc(NS(=O)(=O)c3cc(C(=O)C(F)(F)F)c4ccc(C(=O)N(C)C)ccc3-4)c2)c1`: the Ki was over 10 µM.
For `CN(C)C(=O)c1ccc2c(C(=O)N(C)C)cc(S(=O)(=O)O)c-2cc1`, the Ki was over 10 µM.
The same measure, in the same setting: next, `Cc1ccc2c(C(=O)C(F)(F)F)cc(S(=O)(=O)Nc3cccc(NCCNC(=O)c4cccc(C)c4)c3)c-2cc1`: 5 µM.

As a reminder, the EC50 is the concentration giving half of the maximal effect. In general, Ki refers to a dissociation constant, usually derived from enzyme kinetics or from competition with a known ligand.
